Among the data in ChEMBL document CHEMBL5113441, “Exploration of 4-(1H-indol-3-yl)cyclohex-3-en-1-amine analogues as HDAC inhibitors: Design, synthesis, biological evaluation and modelling studies” (Bioorg Med Chem Lett, 2022) are IC50 and Activity values, retold here.

Data set [1] has as its system HCT-116. The data set is described as follows: Antiproliferative activity against human HCT-116 cells measured after 72 hrs. It counts as functional, cell-based. To be noted: HCT-116, 72 h.
For data set [2], the system named is SW480. The data set is described as follows: Antiproliferative activity against human SW480 cells measured after 72 hrs. It counts as functional, cell-based. To be noted: SW480, 72 h.
The subject of data set [3] is MCF7. Kind of data set: Antiproliferative activity against human MCF7 cells measured after 72 hrs. It counts as functional, cell-based. To be noted: MCF7, 72 h.
Data set [4] relates to A549. Kind of data set: Antiproliferative activity against human A549 cells measured after 72 hrs. The following applies: A549, 72 h. The format is functional, cell-based.
The test system of data set [5] is HCT-116. Kind of data set: Induction of apoptosis in human HCT-116 cells at 2000 nM measured after 48 hrs by Annexin-FITC/propidium iodide staining based flow cytometry. The format is functional, cell-based.
Data set [6] in a line: Cytotoxicity against human L02 cells measured after 72 hrs.
In data set [7] the target is Histone deacetylase 1 (Homo sapiens, UniProt Q13547). The data set is described as follows: Inhibition of HDAC1 (unknown origin).
Data set [8] concerns the target Histone deacetylase 2 (Homo sapiens, UniProt Q92769). Kind of data set: Inhibition of HDAC2 (unknown origin).
Data set [9] addresses Histone deacetylase 3 (Homo sapiens, UniProt O15379). The data set is described as follows: Inhibition of HDAC3 (unknown origin).
Data set [10] has as its target T1, Protein deacetylase HDAC6 (Homo sapiens, UniProt Q9UBN7).
T1 sequence (Q9UBN7 whole entry): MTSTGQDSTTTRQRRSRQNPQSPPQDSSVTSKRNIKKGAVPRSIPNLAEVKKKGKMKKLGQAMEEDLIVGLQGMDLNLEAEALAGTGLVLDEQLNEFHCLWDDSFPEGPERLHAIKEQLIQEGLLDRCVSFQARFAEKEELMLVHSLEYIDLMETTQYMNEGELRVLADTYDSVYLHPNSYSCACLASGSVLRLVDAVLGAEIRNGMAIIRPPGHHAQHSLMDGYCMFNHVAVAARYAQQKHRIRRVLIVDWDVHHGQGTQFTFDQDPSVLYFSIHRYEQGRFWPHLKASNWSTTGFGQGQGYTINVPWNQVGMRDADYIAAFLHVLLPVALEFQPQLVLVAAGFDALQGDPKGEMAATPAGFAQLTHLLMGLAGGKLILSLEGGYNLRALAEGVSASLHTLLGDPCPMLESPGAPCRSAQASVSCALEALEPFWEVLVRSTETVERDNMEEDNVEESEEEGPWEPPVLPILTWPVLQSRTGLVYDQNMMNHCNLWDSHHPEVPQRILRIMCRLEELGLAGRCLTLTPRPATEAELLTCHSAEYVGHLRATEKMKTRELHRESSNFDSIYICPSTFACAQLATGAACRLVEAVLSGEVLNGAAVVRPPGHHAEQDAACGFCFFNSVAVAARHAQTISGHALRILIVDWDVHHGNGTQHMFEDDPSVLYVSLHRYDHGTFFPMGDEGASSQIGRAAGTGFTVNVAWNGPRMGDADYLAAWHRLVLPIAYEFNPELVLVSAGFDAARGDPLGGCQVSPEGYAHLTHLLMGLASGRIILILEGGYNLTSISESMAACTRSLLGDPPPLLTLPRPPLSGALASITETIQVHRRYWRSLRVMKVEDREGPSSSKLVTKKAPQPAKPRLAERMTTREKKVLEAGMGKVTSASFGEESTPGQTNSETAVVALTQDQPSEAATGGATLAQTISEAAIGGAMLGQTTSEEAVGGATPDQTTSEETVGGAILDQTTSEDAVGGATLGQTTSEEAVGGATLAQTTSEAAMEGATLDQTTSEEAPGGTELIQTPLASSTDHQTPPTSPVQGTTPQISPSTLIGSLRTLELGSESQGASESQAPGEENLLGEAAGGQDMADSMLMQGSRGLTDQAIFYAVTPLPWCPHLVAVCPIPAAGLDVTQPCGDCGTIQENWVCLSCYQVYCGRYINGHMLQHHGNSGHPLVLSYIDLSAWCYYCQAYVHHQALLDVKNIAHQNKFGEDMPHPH
The data set is described as follows: Inhibition of HDAC6 (unknown origin).

In data set [11] the target is T2, Histone deacetylase 8 (Homo sapiens, UniProt Q9BY41).
T2 sequence (Q9BY41 whole entry): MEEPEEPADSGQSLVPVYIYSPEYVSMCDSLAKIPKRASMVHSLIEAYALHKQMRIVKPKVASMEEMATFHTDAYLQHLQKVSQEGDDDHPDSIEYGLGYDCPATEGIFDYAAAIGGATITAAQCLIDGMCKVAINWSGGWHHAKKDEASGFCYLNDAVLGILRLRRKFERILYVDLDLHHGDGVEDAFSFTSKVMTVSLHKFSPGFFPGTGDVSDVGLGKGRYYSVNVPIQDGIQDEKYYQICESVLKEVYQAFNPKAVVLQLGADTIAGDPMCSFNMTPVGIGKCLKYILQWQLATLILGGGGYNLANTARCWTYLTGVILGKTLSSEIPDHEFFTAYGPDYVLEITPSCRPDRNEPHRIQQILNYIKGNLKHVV
The data set is described as follows: Inhibition of HDAC8 (unknown origin).

pIC50: −log10 of the molar value. Active and inactive are the calls of the source. No cut-off for these calls is given here.

Chain of Histone deacetylase 1 (Q13547 whole entry): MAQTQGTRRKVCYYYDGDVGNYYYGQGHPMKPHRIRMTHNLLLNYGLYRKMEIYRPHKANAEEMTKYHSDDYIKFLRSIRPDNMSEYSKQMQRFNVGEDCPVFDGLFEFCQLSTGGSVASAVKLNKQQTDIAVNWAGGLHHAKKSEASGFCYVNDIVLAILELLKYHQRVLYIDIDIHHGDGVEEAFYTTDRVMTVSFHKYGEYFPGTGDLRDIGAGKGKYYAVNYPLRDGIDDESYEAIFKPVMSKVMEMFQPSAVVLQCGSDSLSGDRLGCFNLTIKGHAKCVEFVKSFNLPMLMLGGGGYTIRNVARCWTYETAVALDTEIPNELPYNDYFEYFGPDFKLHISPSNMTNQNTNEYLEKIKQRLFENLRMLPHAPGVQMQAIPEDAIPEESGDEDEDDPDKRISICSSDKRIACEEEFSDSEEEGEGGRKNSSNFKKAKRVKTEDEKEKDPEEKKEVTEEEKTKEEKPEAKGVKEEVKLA
Chain of Histone deacetylase 3 (O15379 whole entry): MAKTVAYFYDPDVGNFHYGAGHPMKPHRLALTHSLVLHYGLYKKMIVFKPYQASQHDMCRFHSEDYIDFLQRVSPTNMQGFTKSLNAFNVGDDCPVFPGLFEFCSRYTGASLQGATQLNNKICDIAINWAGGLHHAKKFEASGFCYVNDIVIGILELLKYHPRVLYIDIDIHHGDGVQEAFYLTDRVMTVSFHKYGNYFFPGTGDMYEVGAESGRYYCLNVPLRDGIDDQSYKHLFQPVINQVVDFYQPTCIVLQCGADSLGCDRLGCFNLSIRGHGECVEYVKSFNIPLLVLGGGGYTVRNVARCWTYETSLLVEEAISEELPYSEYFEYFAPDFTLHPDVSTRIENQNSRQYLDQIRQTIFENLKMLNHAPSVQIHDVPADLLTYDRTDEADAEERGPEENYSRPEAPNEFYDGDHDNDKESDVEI
Chain of Histone deacetylase 2 (Q92769 whole entry): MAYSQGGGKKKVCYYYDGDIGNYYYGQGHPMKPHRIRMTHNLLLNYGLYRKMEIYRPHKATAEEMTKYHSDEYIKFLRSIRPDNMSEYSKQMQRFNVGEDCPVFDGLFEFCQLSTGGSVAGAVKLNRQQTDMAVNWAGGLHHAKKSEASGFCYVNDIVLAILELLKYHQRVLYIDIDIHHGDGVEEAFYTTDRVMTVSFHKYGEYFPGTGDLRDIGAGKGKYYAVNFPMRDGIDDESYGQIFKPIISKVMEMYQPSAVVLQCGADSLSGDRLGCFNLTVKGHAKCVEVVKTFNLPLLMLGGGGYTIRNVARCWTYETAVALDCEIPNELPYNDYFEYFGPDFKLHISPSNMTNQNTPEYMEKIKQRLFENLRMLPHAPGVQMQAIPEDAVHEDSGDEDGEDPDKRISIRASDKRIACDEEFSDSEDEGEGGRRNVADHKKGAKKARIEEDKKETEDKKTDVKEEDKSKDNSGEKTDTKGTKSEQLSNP

For the compound `Cc1[nH]c2ccccc2c1C1=CCC(NC(=O)c2ccc(OCC(=O)NO)cc2)CC1` (configuration not stated), the negative logarithm of the IC50 (pIC50) in [1] and in data set [2] was less than 5.30 each time.

In the case of `O=C(COc1cccc(CNCCc2c[nH]c3ccccc23)c1)NO`, the values for the pIC50 in data set [1] and in data set [3] were 5.58 and 5.63, respectively.

Consider `O=C(COc1ccc(C(=O)NC2CC=C(c3c[nH]c4cccc(F)c34)CC2)cc1)NO` (configuration not stated), for which the pIC50 in data set [1] and in data set [2] was less than 5.30 in each case.

On to `O=C(COc1ccc(C(=O)N2CC=C(c3c[nH]c4ccc(F)cc34)CC2)cc1)NO`, for which the negative-log IC50 (pIC50) in data set [1] and in data set [2] was less than 5.30 each time.

For `Cc1[nH]c2ccccc2c1C1=CCC(NCc2ccc(OCC(=O)NO)cc2F)C(F)C1` (configuration not stated), the pIC50 in data set [1] was 6.13; in [3], 5.64; in data set [2] it was 6.29; in data set [4], 6.30.

On to `O=C(COc1ccc(CNC2CC=C(c3c[nH]c4cccc(F)c34)CC2)c(F)c1)NO` (configuration not stated), for which the pIC50 in data set [1] is 6.76; in data set [3], 6.04; in [2] it was 6.72; in data set [4] it was 6.69.

`O=C(COc1ccc(CNCCc2c[nH]c3ccccc23)cc1F)NO`: the values for the pIC50 in data set [1] and in [3] were 6.79 and 6.81, respectively.

As for `O=C(COc1ccc(CNC2CC=C(c3c[nH]c4ccc(F)cc34)CC2)c(F)c1)NO` (configuration not stated), the negative-log IC50 (pIC50) is 6.58 in data set [1], 5.85 in [3], 6.75 in data set [2] and 6.52 in data set [4].

For the compound `Cc1[nH]c2ccccc2c1C1=CCN(Cc2ccc(OCC(=O)NO)cc2F)CC1`, the figures for the negative-log IC50 (pIC50) in [1] and in [2] were 5.91 and 5.80, respectively.

On to `O=C(COc1ccc(CN2CC=C(c3c[nH]c4cccc(F)c34)CC2)cc1)NO`, for which the negative-log IC50 (pIC50) in data set [1] was 6.01; in data set [2], 5.64.

Take `O=C(COc1ccc(CNC2CC=C(c3c[nH]c4ccccc34)CC2)c(F)c1)NO` (configuration not stated): the pIC50 in data set [1] is 6.36; in data set [3], 5.93; in data set [2] it was 5.94; in [4] it was 6.56.

As to `O=C(COc1ccc(CNCCn2cnc3ccccc32)c(F)c1)NO`, the pIC50 in data set [1] was 6.39; in data set [3], 6.27.

In the case of `O=C(COc1ccc(CNCCc2c[nH]c3ccccc23)cc1)NO`, the values for the pIC50 in data set [1] and in [3] were 6.72 and 6.66, respectively.

In data set [2], `O=C(CCCCCCC(=O)Nc1ccccc1)NO` [VORINOSTAT] showed a negative logarithm of the IC50 (pIC50) of 5.67. For the same compound, in [5], the outcome was Active.

As to `Cc1[nH]c2ccccc2c1C1=CCN(Cc2ccc(OCC(=O)NO)cc2)CC1`, the pIC50 in data set [1] is 6.52; in [3] it was 5.80; in data set [2] it was 6.16; in data set [4], 6.21.

As for `Cc1[nH]c2ccccc2c1C1=CCN(C(=O)c2ccc(OCC(=O)NO)cc2)CC1`, the negative logarithm of the IC50 (pIC50) in [1] and in [2] was less than 5.30 each time.

In the case of `O=C(COc1ccc(C(=O)N2CC=C(c3c[nH]c4cccc(F)c34)CC2)cc1)NO`, the negative-log IC50 (pIC50) was 5.85 in [1] and 5.83 in data set [2].

Consider `Cc1ccc2[nH]cc(C3=CCC(NCc4ccc(OCC(=O)NO)cc4F)CC3)c2c1` (configuration not stated), for which the values for the pIC50 in data set [1] and in [2] were 6.35 and 5.56, respectively.

As for `O=C(COc1ccc(CN2CC=C(c3c[nH]c4cccc(F)c34)CC2)c(F)c1)NO`, the pIC50 was 5.91 in data set [1] and 5.25 in data set [2].

As to `O=C(COc1ccc(CNCCc2c[nH]c3ccccc23)c(F)c1)NO`, the pIC50 is 7.34 in data set [1]; 7.11 in [3]; 8.68 in data set [7]; 8.51 in data set [8]; 8.20 in data set [9]; 7.85 in data set [10]. In addition, the pIC50 in [11] was 7.05. Further, the midpoint of inhibition in data set [6], the IC50 at 72 h, lay at 1.56 µM.

For `Cc1ccc2[nH]cc(C3=CCN(Cc4ccc(OCC(=O)NO)cc4)CC3)c2c1`, the pIC50 was 6.20 in data set [1] and 5.40 in data set [2].

`O=C(COc1ccc(CN2CC=C(c3c[nH]c4ccc(F)cc34)CC2)cc1)NO`: the negative logarithm of the IC50 (pIC50) in data set [1] was 6.02; in data set [2], 5.95.

Regarding `O=C(COc1ccc(CNCCc2c[nH]c3ccccc23)cc1Cl)NO`, the values for the pIC50 in data set [1] and in data set [3] were 5.71 and 5.97, respectively.

Turning to `Cc1[nH]c2ccccc2c1C1=CCC(NCc2ccc(OCC(=O)NO)cc2)CC1` (configuration not stated), the pIC50 in data set [1] is 6.74; in data set [3] it was 6.05; in [2] it was 6.44; in data set [4], 6.73.

As to `Cc1ccc2[nH]cc(C3=CCN(Cc4ccc(OCC(=O)NO)cc4F)CC3)c2c1`, the pIC50 in data set [1] was 5.84; in data set [2], 5.71.

Regarding `Cc1[nH]c2cccc(F)c2c1C1=CCC(NCc2ccc(OCC(=O)NO)cc2F)CC1` (configuration not stated), the negative logarithm of the IC50 (pIC50) was 6.60 in data set [1], 5.93 in [3] and 6.61 in data set [4].

As for `COc1cc(OCC(=O)NO)ccc1CNCCc1c[nH]c2ccccc12`, the pIC50 in data set [1] and in data set [3] was less than 5.00 in each case.

In the case of `O=C(COc1ccc(CN2CC=C(c3c[nH]c4ccc(F)cc34)CC2)c(F)c1)NO`, the pIC50 in data set [1] is less than 5.30; in [2], 5.41.

Regarding `COc1cc(OCC(=O)NO)ccc1CNCCn1cnc2ccccc21`, the pIC50 in data set [1] and in data set [3] was less than 5.00 throughout.
